Data from patent US5102888A, “Quinoline type mevalonolactones useful for treating hyperlipidemia and related diseases” (Nissan Chemical Industries Ltd., priority 1987, dated 1992).
Counter-ions that a name gives are not always drawn.

Target: cholesterol biosynthesis wherein HMG-CoA reductase acts as a rate limiting enzyme (rat liver microsome and sup fraction)
Assay: Test A: Inhibition of Cholesterol Biosynthesis from Acetate In Vitro
Format: biochemical, male Wistar rat
Conditions: for IC50: [2-14C]sodium acetate incorporation, rat liver microsome + sup fraction, 2 hours, 37° C., read-out: I50 (Inhibitory activities by Test A); for Relative activities by Test A: relative to activity of CS-514 evaluated to be 1
Experimental: Enzyme solution was prepared from liver of male Wistar rat billialy cannulated and discharged bile for over 24 hours. Liver was cut out at mid-dark and microsome and supernatant fraction which was precipitable with 40-80% of saturation of ammonium sulfate (sup fraction) were prepared from liver homogenate according to the modified method of Knauss et. al.; Kuroda, M., et. al., Biochim. Biophys. Acta, 489, 119 (1977). For assay of cholesterol biosynthesis, microsome (0.1 mg protein) and sup fraction (1.0 mg protein) were incubated for 2 hours at 37° C. in 200 μl of the reaction mixture containing ATP; 1 mM, Glutathione; 6 mM, Glucose-1-phosphate; 10 mM, NAD; 0.25 mM, NADP; 0.25 mM, CoA; 0.04 mM and 0.2 mM [2-^14 C]sodium acetate (0.2 μCi) with 4 μl of test compound solution dissolved in water or dimethyl sulfoxide. To stop reaction and saponify, 1 ml of 15% EtOH--KOH was added to the reactions and heated at 75° C. for 1 hour. […] Inhibitory activity of compounds was indicated with IC50.

Relative activities by Test A | SMILES | IC50
– | CCC(C)C(=O)OC1CC(O)C=C2C=CC(C)C(CCC(O)CC(O)CC(=O)O)C21 (stereo not shown) [CS-514, reference compound] | 9 nM
– | CC(C)c1nc2ccccc2c(-c2ccc(F)cc2)c1/C=C/C(O)CC(O)CC(=O)O (stereo not shown) [Compound I-51, Sodium salt of (E)-3,5-dihydroxy-7-[4'-(4"-fluorophenyl)-2'-(1"-methylethyl)-quinolin-3'-yl]-hept-6-enoic acid] | 10 nM
0.37 | CCOC(=O)CC(O)CC(O)/C=C/c1c(CC)nc2ccccc2c1-c1ccc(F)cc1 (stereo not shown) [Compound I-117] | –
0.76 | CC(C)c1nc2c(Cl)cc(Cl)cc2c(-c2ccc(F)cc2)c1/C=C/C(O)CC(O)CC(=O)O (stereo not shown) [Compound I-522] | –
